The values that follow come from patent US20160287564A1, “METHODS OF ADMINISTERING GLUTAMINASE INHIBITORS” (Calithera Biosciences, Inc., priority 2015, published 2016).

Entries after “also recorded” stand apart in the source; their conditions may differ.

The test system of one data set is glutaminase. As to the kind of experiment: Glutaminase activity in peripheral blood mononuclear cells (PBMCs) of treated patients. The format is in vivo, human. The conditions noted are these: PBMCs from three patients treated with 600, 800 and 1000 mg three times per day; 10-58% leukemic blast counts.
Data set [1] can be described thus: Pharmacokinetics in cancer patients, dosing schedule of FIG. 6. The format is in vivo, human. The protocol:
FIG. 6 is a table that describes the dosing regimen for CB-839.
CB-839 was administered to cancer patients according to the dosing schedule in FIG. 6. The half-life of CB-839 is approximately 4 hours.

The subject of a further data set is acute leukemia. As to the kind of experiment: Clinical outcomes in efficacy-evaluable subjects with acute leukemia.
Data set [2] in a line: Safety: dose-limiting toxicity and treatment-related adverse events in Examples 1 and 2.
Procedure: The compound of formula III (CB-839) was administered, orally, to fifteen human subjects with acute leukemia for 22 days. The compound was administered three times per day (“TID”) at doses ranging from 100 mg per dose to 1000 mg per dose (i.e., 300 mg to 3000 mg total compound per day). Plasma levels of the compound were monitored on days 1, 15, and 22. Subjects received the compound in a fasted state on days 1 and 15 (e.g., without a meal as defined herein) and in a fed state on day 22 (e.g., with a meal as defined herein). Administration of the compound in a fasted state consisted of oral administration of a first dose 1 hour before breakfast, oral administration of a second dose at 3 PM, and oral administration of a third dose prior to bedtime.
Each subject from Example 1 who remained enrolled in the trial were administered 600 mg of the compound of formula III orally, twice a day (“BID”), with food, each day after day 22 of the trial (i.e., 1200 mg of the compound per day).
Data set [3] can be described thus: Plasma pharmacokinetics after oral TID/BID dosing, fasted or fed, in human subjects with acute leukemia. As to conditions: 600 mg twice a day with food.
Procedure: The compound was administered three times per day (“TID”) at doses ranging from 100 mg per dose to 1000 mg per dose (i.e., 300 mg to 3000 mg total compound per day). Plasma levels of the compound were monitored on days 1, 15, and 22. Subjects received the compound in a fasted state on days 1 and 15 (e.g., without a meal as defined herein) and in a fed state on day 22 (e.g., with a meal as defined herein). Administration of the compound in a fasted state consisted of oral administration of a first dose 1 hour before breakfast, oral administration of a second dose at 3 PM, and oral administration of a third dose prior to bedtime.
Each subject from Example 1 who remained enrolled in the trial were administered 600 mg of the compound of formula III orally, twice a day (“BID”), with food, each day after day 22 of the trial (i.e., 1200 mg of the compound per day). […] Pharmacokinetics data was compared for subjects receiving 600 mg of the compound three times per day in a fasted state (i.e., 1800 mg of the compound per day, without meals as defined herein) and subjects receiving 600 mg of the compound two times per day in a fed state (i.e., 1200 mg of the compound per day, with meals as defined herein).
[4] abbreviates: BID Fed dosing regimen, FIG. 6-8.
The mark [5] stands for this setting: occurred in greater than 10% of subjects, fifteen subjects.

Procedure for glutaminase: The compound was administered three times per day (“TID”) at doses ranging from 100 mg per dose to 1000 mg per dose (i.e., 300 mg to 3000 mg total compound per day).

In general, half-life refers to the time in which the quantity being followed falls by half. Read a low half-life as fast loss. In the case of `O=C(Cc1cccc(OC(F)(F)F)c1)Nc1ccc(CCCCc2nnc(NC(=O)Cc3ccccn3)s2)nn1` [CB-839], in the data set on glutaminase, the “inhibition of glutaminase activity” value was above 94%. Besides, in data set [1] (setting [4]), the “PK variability with BID Fed dosing regimen” value is given as “PK variability is reduced” and the “exposure with BID Fed dosing regimen” value is “consistent exposure; also recorded: target CB-839 concentrations are maintained”. The exposure versus dose result in data set [1] (cancer patients, dosing schedule of FIG. 6) is on record as “Exposure generally increases with dose”. In data set [1] (human, in vivo, oral, cancer patients), the half-life was around 4 h. Besides, in the data set with acute leukemia (after 6 cycles of dosing), the complete response entry is “One subject achieved a complete response in the bone marrow with incomplete recovery of peripheral counts”. Moreover, the “stable disease for 4-10 cycles” value in the data set with acute leukemia (of 15 efficacy-evaluable subjects across all dose levels, 1 cycle=21 days) is listed as 5 (33%) subjects. Moreover, in the data set with acute leukemia (subjects with stable disease), the “average time remaining on the study drug” value is listed as 134 days. In addition, the dose-limiting toxicity result in data set [2] (Examples 1 and 2, all dose levels) was “No dose-limiting toxicity was identified”. In addition, in data set [2] (setting [5]), the “increased bilirubin levels (treatment-related adverse event)” value turned out to be 2 subjects and the “increased transaminase levels (treatment-related adverse event)” value is 4 subjects. In addition, in data set [3], the “time in which Cmax was reached” value was in the range of 2 to 6 h. Besides, the “plasma levels of the compound” value in data set [3] (all subjects) was “exceeded 450 nM”.
